Source: patent US8691222B2, “NLRR-1 antagonists and uses thereof” (Genentech, Inc., priority 2007, dated 2014)

Legend:
[1] = system: EGFR in NCI-H2009, NCI-H226, NCI-H647 cells; assay: EGFR flow cytometry and immunoblot after NLRR-1 siRNA knockdown; type: cell-based, human
Protocol: (§1) The NLRR-1 siRNA duplex was designed and synthesized by Dharmacon (Lafayette, Colo.). The sense sequence is […] (SEQ ID NO: 11) and the antisense sequence is 5′-[…] (SEQ ID NO: 12). NCI-H2009, NCI-H647, NCI-H226, and SK-MES-1 cells were seeded at 2830/cm^2 and NCI-H520 and NCI-H1781 cells were seeded at 5660/cm^2. 100 nM of siRNA was transfected with DharmaFECT 4 for 6 to 8 hours before the transfectant was replaced with fresh media. A non-targeting siRNA sequence (Dharmacon) was used as a negative control. RT-PCR was performed on RNA extracted from 60 mm plates using RNeasy (Qiagen, Valencia, Calif.) per manufacturer's instructions. EGFR flow cytometry and immunoblot: After siRNA transfection for 24 hours, cells were harvested and stained with α-EGFR antibody conjugated to PE (BD Pharmingen) and propidium iodide for flow cytometry analysis. 10,000 events were collected and cells were gated on FSC, SSC, and PI. For immunoblot analysis, lysates were immunoblotted with α-EGFR (MBL) or α-βtubulin (Santa Cruz Biotechnology). […] Cell growth was assessed after 4 days by Cell Titer Glo (Promega, Madison, Wis.) per manufacturer's instructions. […] For apoptosis assay with starvation, cells were starved in Optimem I. For both assays, cell viability was measured with Cell Titer Glo (Promega, Madison, Wis.) and apoptosis was measured with Caspase-Glo 3/7 (Promega) after 2 days. […]

[2] = system: SK-MES1 lung carcinoma cell line; assay: Proliferation assay (Cell Titer Glo) after siRNA knockdown, SK-MES1; type: cell-based, human; conditions: 100 nM siRNA; 4 days; SK-MES1, does not express NLRR-1
Protocol: as §1

[3] = system: cell lines that endogenously expressed NLRR-1; assay: Apoptosis assay with starvation (caspase 3/7) after siRNA knockdown; type: cell-based, human; conditions: vs non-targeting control RNA
Protocol: as §1, with “instructions.” for “instructions. EGFR flow cytometry and immunoblot: After siRNA transfection for 24 hours, cells were harvested and stained with α-EGFR antibody conjugated to PE (BD Pharmingen) and propidium iodide for flow cytometry analysis. 10,000 events were collected and cells were gated on FSC, SSC, and PI. For immunoblot analysis, lysates were immunoblotted with α-EGFR (MBL) or α-βtubulin (Santa Cruz Biotechnology).”
EGFR pathway activation in tumor cells has consequences for many important cellular processes, including cell survival. […] NLRR-1 was knocked down using siRNA, cells were subjected to starvation to promote apoptosis, and apoptosis was measured by caspase 3/7 activity and normalized for viable cells (FIG. 6C).

NCI-H647 cells = assay: Apoptosis and erlotinib synergy assay, NCI-H647; type: cell-based, human; conditions: NLRR-1 siRNA knockdown plus increasing concentrations of erlotinib; NCI-H647, erlotinib-resistant; FIG. 8A
Protocol: as §1

NCI-H1781 cells = assay: Apoptosis and erlotinib synergy assay, NCI-H1781; type: cell-based, human; conditions: NLRR-1 siRNA knockdown plus increasing concentrations of erlotinib; NCI-H1781, resistant; FIG. 8B
Protocol: as §1

NCI-H226 cells = assay: Apoptosis and erlotinib synergy assay, NCI-H226; type: cell-based, human; conditions: NLRR-1 siRNA knockdown plus increasing concentrations of erlotinib; NCI-H226, resistant; FIG. 8C
Protocol: as §1

NCI-H520 cells = assay: Apoptosis and erlotinib synergy assay, NCI-H520; type: cell-based, human; conditions: NLRR-1 siRNA knockdown plus increasing concentrations of erlotinib; NCI-H520, resistant; FIG. 8D
Protocol: as §1

NCI-H2009 cells [4] = assay: Apoptosis and erlotinib synergy assay, NCI-H2009; type: cell-based, human; conditions: NLRR-1 siRNA knockdown plus increasing concentrations of erlotinib; NCI-H2009, erlotinib-sensitive; FIG. 8E
Protocol: as §1

[5] = system: SK-MES cells (NLRR-1-negative); assay: Apoptosis and erlotinib synergy assay, SK-MES; type: cell-based, human; conditions: NLRR-1 siRNA knockdown plus increasing concentrations of erlotinib, erlotinib-sensitive, FIG. 8F
Protocol: as §1

NCI-H2009 cells [6] = conditions: NCI-H2009, characterized as sensitive to erlotinib; cited from earlier work
[7] = system: lung tumor cell lines which endogenously express NLRR-1; conditions: several lung tumor cell lines classified as resistant to erlotinib; cited from earlier work

Row | Compound | total EGFR protein level ([1]; NLRR-1 depleted vs control-depleted cells, immunoblot) | surface EGFR protein level ([1]; siRNA knockdown 24 hours, NCI-H2009, NCI-H226, NCI-H647, vs non-targeting siRNA, flow cytometry) | proliferation (ATP-based cell viability) [2] | apoptosis (caspase 3/7 activity normalized for viable cells) [3] | apoptosis (caspase 3/7 activity) in presence of erlotinib (NCI-H647 cells) | apoptosis (caspase 3/7 activity) in presence of erlotinib (NCI-H1781 cells) | apoptosis (caspase 3/7 activity) in presence of erlotinib (NCI-H226 cells) | apoptosis (caspase 3/7 activity) in presence of erlotinib (NCI-H520 cells) | apoptosis (caspase 3/7 activity) in presence of erlotinib (NCI-H2009 cells [4]) | apoptosis (caspase 3/7 activity) in presence of erlotinib [5] | IC50 (NCI-H2009 cells [6]) | IC50 [7]
1 | NLRR-1 siRNA: siRNA duplex by Dharmacon; sense GCCAGAACCUGAAAUUUACUU (SEQ ID NO: 11), antisense 5′-PGUAAAUUUCAGGUUCUGGCUU (SEQ ID NO: 12) (5' phosphate on antisense, further chemistry not given here) | unchanged | increase in surface EGFR | no significant defect in proliferation | increase in apoptosis | significant increase in sensitivity | synergy | synergy | possibly also, to a lesser degree | did not show any increased apoptosis | did not show any increase in apoptosis |  | 
2 | C#Cc1cccc(Nc2ncnc3cc(OCCOC)c(OCCOC)cc23)c1 [erlotinib] |  |  |  |  |  |  |  |  |  |  | ≤ 2000 nM | ≥ 8 µM
